The values that follow come from the supplement of paper PMC11061612.

What all share (experiment): Bliss excess, mean over the matrix (fraction); higher = more synergy
In test [1] the test system is SK-ES-1 (Ewing's Sarcoma). The procedure, abridged: (§1)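 After 24 hours at 37°C and 5% CO2 in 1536-well plates, cells in DMEM/F12 or RPMI plus 10% FBS received two-drug dose matrices for 72 hours. Viability came from CellTiter-Glo 2.0 luminescence and was scaled as inhibition, anchored at 0 by vehicle wells and at 1 by blank wells. Combination Emax is taken as the second-highest inhibition in the matrix, and Bliss excess as the observed combination effect less EA + EB − EA·EB, with EA and EB the single-agent effects.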

Test [2] relates to LNCaP-Clone-FGC (Prostate Carcinoma). The procedure, abridged:
as §1

In test [3] the test system is MFE-296 (Endometrial Carcinoma). The procedure, abridged:
as §1

A further test relates to NB10 (Neuroblastoma). In outline:
as §1

Test [4] has as its system HCC1806 (Breast Carcinoma). The procedure, abridged:
as §1

Test [5] has as its system Ramos-2G6-4C10 (Burkitt's Lymphoma). The procedure, abridged:
as §1

Test [6] has as its system HT-1376 (Bladder Carcinoma). In outline:
as §1

For test [7], the system named is HuP-T4 (Pancreatic Carcinoma). The procedure, abridged:
as §1

The test system of test [8] is LS-180 (Colorectal Carcinoma). The procedure, abridged:
as §1

In test [9] the test system is Calu-3 (Lung Adenocarcinoma). In outline:
as §1

The subject of test [10] is TCCSUP (Bladder Carcinoma). The procedure, abridged: as §1
The next test deals with ES4 (Ewing's Sarcoma). The procedure, abridged:
as §1

In test [11] the test system is DoTc2-4510 (Cervical Carcinoma). The procedure, abridged:
as §1

Test [12] deals with NCI-H2085 (Non-Small Cell Lung Carcinoma). In outline:
as §1

Test [13] concerns UM-UC-3 (Bladder Carcinoma). The procedure, abridged: as §1
Another test concerns NOS-1 (Osteosarcoma). The procedure, abridged:
as §1

The test system of test [14] is MDA-MB-361 (Breast Carcinoma). The procedure, abridged:
as §1

Test [15] concerns B-CPAP (Thyroid Gland Carcinoma). In outline:
as §1

In test [16] the test system is KP-1N (Pancreatic Carcinoma). In outline:
as §1

Test [17] relates to CaR-1 (Colorectal Carcinoma). In outline: as §1

For the molecule `CC1(C)CCC(CN2CCN(c3ccc(C(=O)NS(=O)(=O)c4ccc(NCC5CCOCC5)c([N+](=O)[O-])c4)c(Oc4cnc5[nH]ccc5c4)c3)CC2)=C(c2ccc(Cl)cc2)C1` [Venetoclax] + CN(C)CCCOc1ccc(-c2ccc3ncc4c(c3c2)n(C2CCOCC2)c(=O)n4C)cn1 [AZD0156] (first compound max 1 µM, 7x7, partner max 1 µM), the Bliss excess was 0.0502 in [1]; -0.0503 in [2]; 0.0003 in test [3]; 0.0418 in the test with NB10 (Neuroblastoma); 0.0097 in [4]; 0.0676 in [5]. In addition, the Bliss excess in test [6] is -0.0151; in [7], -0.0099; in [8] it was -0.0099; in test [9] it was -0.0113; in test [10] it was -0.036; in the test with ES4 (Ewing's Sarcoma), -0.0226. The Bliss excess in test [11] was -0.0148; in [12], -0.0295; in [13] it was 0.0045; in the test on NOS-1 (Osteosarcoma), -0.0358; in test [14] it was 0.0156; in [15], 0.0113. For the same molecule, the values for the Bliss excess in test [16] and in test [17] were -0.0431 and -0.0201, respectively.
In the case of `CC1(C)CCC(CN2CCN(c3ccc(C(=O)NS(=O)(=O)c4ccc(NCC5CCOCC5)c([N+](=O)[O-])c4)c(Oc4cnc5[nH]ccc5c4)c3)CC2)=C(c2ccc(Cl)cc2)C1` [Venetoclax] + COc1cc(Nc2ncc3c(n2)-c2ccc(Cl)cc2C(c2c(F)cccc2OC)=NC3)ccc1C(=O)O [Alisertib] (first compound max 1 µM, 7x7, partner max 10 µM), the Bliss excess in test [1] is 0.097; in [2] it was 0.0008; in test [3], -0.0285; in the test on NB10 (Neuroblastoma), -0.0052; in test [4], 0.0042; in test [5], 0.0209. Moreover, the Bliss excess in [6] was -0.0812; in test [7], 0.0336; in test [8] it was -0.008; in test [9] it was -0.0228; in test [10], -0.0341; with ES4 (Ewing's Sarcoma), -0.0349. Further, the Bliss excess in test [11] is -0.0367; in test [12], 0.0491; in [13], 0.0184; in the test with NOS-1 (Osteosarcoma), -0.0231; in test [14], 0.147; in test [15], -0.0128. The Bliss excess is 0.0194 in test [16] and 0.008 in test [17].
On to `CC1(C)CCC(CN2CCN(c3ccc(C(=O)NS(=O)(=O)c4ccc(NCC5CCOCC5)c([N+](=O)[O-])c4)c(Oc4cnc5[nH]ccc5c4)c3)CC2)=C(c2ccc(Cl)cc2)C1` [Venetoclax] + C[C@@H]1COCCN1C2=NC(=NC(=C2)C3(CC3)[S@](=N)(=O)C)C4=C5C=CNC5=NC=C4 [AZD6738] (first compound max 1 µM, 7x7, partner max 10 µM), for which the Bliss excess in test [1] is 0.0104; in [2], -0.0645; in test [3] it was -0.0296; in the test on NB10 (Neuroblastoma) it was 0.0159; in [4], -0.0665; in test [5] it was -0.0389. Also, the Bliss excess was -0.0365 in test [6]; -0.037 in test [7]; -0.0174 in [8]; -0.0023 in test [9]; -0.1 in test [10]; -0.0465 in the test on ES4 (Ewing's Sarcoma). In addition, the Bliss excess in [11] was -0.0174; in test [12], 0.0309; in test [13] it was -0.0296; with NOS-1 (Osteosarcoma), -0.057; in [14], -0.0214; in [15], -0.0136. The Bliss excess is -0.0217 in test [16] and -0.0005 in test [17].
Turning to `CC1(C)CCC(CN2CCN(c3ccc(C(=O)NS(=O)(=O)c4ccc(NCC5CCOCC5)c([N+](=O)[O-])c4)c(Oc4cnc5[nH]ccc5c4)c3)CC2)=C(c2ccc(Cl)cc2)C1` [Venetoclax] + C[C@@H](Nc1cc(F)cc(F)c1)c1cc(C(=O)N(C)C)cc2c(=O)cc(N3CCOCC3)oc12 [AZD8186] (first compound max 1 µM, 7x7, partner max 3 µM), the Bliss excess was 0.0802 in test [1]; -0.0066 in test [2]; -0.0248 in test [3]; -0.0084 in the test on NB10 (Neuroblastoma); -0.0149 in test [4]; 0.0107 in test [5]. The Bliss excess in [6] is -0.0446; in test [7], 0.0033; in [8] it was -0.0286; in test [9], -0.0189; in [10], -0.0442; in the test with ES4 (Ewing's Sarcoma) it was -0.0554. In addition, the Bliss excess in test [11] was -0.0078; in test [12] it was 0.0025; in [13], -0.0164; in the test with NOS-1 (Osteosarcoma) it was 0.018; in test [14], -0.0151; in test [15] it was -0.0151. The Bliss excess in test [16] was 0.0036; in test [17], -0.0366.
In the case of `CC1(C)CCC(CN2CCN(c3ccc(C(=O)NS(=O)(=O)c4ccc(NCC5CCOCC5)c([N+](=O)[O-])c4)c(Oc4cnc5[nH]ccc5c4)c3)CC2)=C(c2ccc(Cl)cc2)C1` [Venetoclax] + Cc1cc2ncnn2cc1Nc1ncc2c(n1)n(C1CCOCC1)c(=O)n2C [AZD7648] (first compound max 1 µM, 7x7, partner max 10 µM), the Bliss excess in test [1] was 0.0203; in test [2] it was -0.0963; in [3], -0.0065; in the test with NB10 (Neuroblastoma), 0.0053; in test [4] it was 0.0043; in test [5], 0.0435. Besides, the Bliss excess in [6] was -0.0226; in [7] it was -0.0151; in [8], -0.0061; in test [9], 0.0113; in [10] it was -0.0444; in the test on ES4 (Ewing's Sarcoma), -0.0452. In addition, the Bliss excess is -0.0413 in [11]; -0.0535 in test [12]; -0.0325 in [13]; -0.0504 in the test with NOS-1 (Osteosarcoma); 0.0398 in [14]; -0.0146 in test [15]. Moreover, the Bliss excess was -0.0217 in test [16] and -0.048 in test [17].
As for `CC1(C)CCC(CN2CCN(c3ccc(C(=O)NS(=O)(=O)c4ccc(NCC5CCOCC5)c([N+](=O)[O-])c4)c(Oc4cnc5[nH]ccc5c4)c3)CC2)=C(c2ccc(Cl)cc2)C1` [Venetoclax] + Cn1cnc2c(F)c(Nc3ccc(Br)cc3Cl)c(C(=O)NOCCO)cc21 [Selumetinib] (first compound max 1 µM, 7x7, partner max 3 µM), the Bliss excess is 0.0234 in test [1]; -0.0459 in test [2]; -0.0297 in test [3]; 0.0021 in the test with NB10 (Neuroblastoma); -0.025 in test [4]; -0.0144 in [5]. Besides, the Bliss excess in test [6] is -0.0411; in [7], 0.0009; in [8], 0.0538; in test [9] it was -0.0214; in test [10], -0.0444; with ES4 (Ewing's Sarcoma), -0.0412. For the same molecule, the Bliss excess in test [11] was -0.0414; in test [12], -0.0271; in test [13] it was -0.0445; with NOS-1 (Osteosarcoma), -0.0082; in test [14] it was -0.0299; in test [15], -0.0446. In addition, the Bliss excess in test [16] was -0.0176; in test [17] it was -0.0511.
